From patent publication US6998410B2, “Compositions” (Altana Pharma AG, priority 1997, dated 2006)

Test system: Adult Sprague Dawley rats lavaged until their endogenous lung surfactant is washed out
Experiment: Arterial oxygen partial pressure (PaO2) in lung-lavaged, ventilated rats (animal model of ARDS) after intratracheal instillation
Type: in vivo, rat (Sprague Dawley)
Settings: for PaO2, average value (± standard deviation): Compound A 600 μg/kg alone
Text: Adult Sprague Dawley rats are artificially ventilated with pure oxygen and a positive end-expiratory pressure (PEEP; in order to guarantee oxygenation of the rats) and lavaged until their endogenous lung surfactant is washed out (D. Häfner, U. Kilian and R. Beume: Comparison of four lung surfactant preparations in an animal model of adult respiratory distress syndrome (ARDS). Am. Rev. Respir. Dis. 1993, 147:A719; D. Häfner, P. -G. Germann, D. Hauschke, Pulmonary Pharmacology (1994) 7, 319–332). This is manifested by the fact that in the animals the preliminary values of the arterial oxygen partial pressure (PaO2) of 500–550 mm Hg (in the case of pure oxygen ventilation and PEEP) decrease to values of 50–110 mm Hg. Animals of the control group, which are not treated with lung surfactant, remain with their PaO2 at these low values throughout the observation period. Sixty minutes after the PaO2 has decreased to these values, lung surfactant or lung surfactant together with N-(3,5-dichloropyrid-4-yl)-3-cyclopropylmethoxy-4-difluoromethoxybenzamide is instilled intratracheally. The blood gases are determined 30 and 120 minutes after instillation.
In Table 1 and Table 2 which follow, in line A the average values (±standard deviation) of the PaO2 are indicated in mm Hg for the time 30 minutes (constant PEEP of 8 cm H2O) after intratracheal instillation and in line B 120 minutes after intratracheal instillation. […] This follows by comparison with the untreated control animals. […] It is therefore possible to save a part of the very expensive lung surfactant, or else to obtain an increased action of each individual component.

## O=C(Nc1c(Cl)cncc1Cl)c1ccc(OC(F)F)c(OCC2CC2)c1 [Compound A, N-(3,5-dichloropyrid-4-yl)-3-cyclopropylmethoxy-4-difluoromethoxybenzamide]
Line A: 30 minutes after intratracheal instillation (constant PEEP of 8 cm H2O)
  PaO2, average value (± standard deviation): 59 ± 12 mm Hg
Line B: 120 minutes after intratracheal instillation
  PaO2, average value (± standard deviation): 75 ± 24 mm Hg
Sole administration, by comparison with the untreated control animals
  Influence on the PaO2 (in words): no influence on the PaO2
